Earlier results, collected in patent US6751290B2, “Radiographic assessment of tissue after exposure to a compound” (Veritas Pharmaceuticals, Inc., priority 1998, dated 2004).

Conditions: experimental logP values, commonly used non-ionic radiographic contrast agents (Hansch et al. 1995)

logP	Structure (SMILES)
−3.05	CC(=O)N(CC(O)CO)c1c(I)c(C(=O)NCC(O)CO)c(I)c(C(=O)NCC(O)CO)c1I (stereo not drawn) [Iohexol]
−2.05	COCC(=O)Nc1c(I)c(C(=O)NCC(O)CO)c(I)c(C(=O)N(C)CC(O)CO)c1I (stereo not drawn) [Iopromide]
−1.86	CC(=O)Nc1c(I)c(C(=O)N[C@H]2C(O)O[C@H](CO)[C@@H](O)[C@@H]2O)c(I)c(N(C)C(C)=O)c1I (stereo partly drawn) [Metrizamide]
